Laboratory results published in patent US12065442B2, “Tropomyosin receptor kinase (TRK) degradation compounds and methods of use” (Cullgen (Shanghai), Inc., priority 2018, dated 2024).
Entries after “also recorded” stand apart in the source; their conditions may differ.

Tests used:
[1] = Body weight of xenograft-bearing mice (toxicity); type: in vivo, Athymic nude mice; conditions: 10-20 mg/kg qd or bid via oral gavage (FIG. 15B)
Procedure: (§1) Athymic nude mice bearing KM12 subcutaneous xenograft tumors at the right flank were intraperitoneally treated with vehicle or 25 mg/kg CPD-060 once per day (qd), twice per day (bid), or once every two days (q2d). Tumor volumes were assessed every two days and expressed as length×width×width/2. Body weights of experimental mice were also measured to assess the toxicity of compounds.
(§2) Athymic nude mice bearing KM12 subcutaneous xenograft tumors at the right flank were treated with vehicle, 10-20 mg/kg TR-181 or TR-198 once per day (qd), or twice per day (bid) via oral gavage. Tumor volumes were assessed every two days and expressed as length×width×width/2. Body weights of experimental mice were also measured to assess the toxicity of compounds.
(§3) All animal experiments were performed under protocols approved by the Institutional Animal Care and Use Committee (IACUC) of Cullgen. Athymic nude mice (male, 5-weeks old) received 5 million KM12 cells subcutaneously inoculated at the right flank site. Ten days following inoculation, tumors were approximately 500 mm3 in size. Tumor-bearing mice were treated intraperitoneally with vehicle or bivalent compounds at indicated doses. Tumor sizes and body weight of mice were measured every 2 days. In addition, immunoblotting assays were employed to assess the levels of TRKA fusion proteins in xenograft tumors around 500 mm^3 in size following drug administration. At indicated hours after drug administration, selected mice were sacrificed, tumors were resected. Small chunks of tumors were homogenized for immunoblotting of TPM3-TPKA and other proteins as indicated.

[2] = system: monoiodoacetate-induced osteoarthritis; test: Monoiodoacetate-induced osteoarthritis pain model in guinea pigs; type: in vivo; conditions: 20 mg/kg i.p., single dose, 6 hours following treatment (FIG. 16B)
[3] = molecular target: TPM3-TRKA fusion protein (Homo sapiens, UniProt P04629+P06753+Q96SW2); test: Immunoblotting of TPM3-TRKA in KM12 subcutaneous xenograft tumors; type: in vivo, Athymic nude mice; parameters: The resulted chimeric proteins always retain the kinase domain of TRK proteins; TPM3 (N-terminal fusion partner, natural gene fusion); from tissue; host or cells: KM12 subcutaneous xenograft tumors in athymic nude mice; conditions: intraperitoneal or oral administration, eight hours after administration (FIG. 10)
Sequence of TPM3-TRKA fusion protein (P06753+P04629 fused): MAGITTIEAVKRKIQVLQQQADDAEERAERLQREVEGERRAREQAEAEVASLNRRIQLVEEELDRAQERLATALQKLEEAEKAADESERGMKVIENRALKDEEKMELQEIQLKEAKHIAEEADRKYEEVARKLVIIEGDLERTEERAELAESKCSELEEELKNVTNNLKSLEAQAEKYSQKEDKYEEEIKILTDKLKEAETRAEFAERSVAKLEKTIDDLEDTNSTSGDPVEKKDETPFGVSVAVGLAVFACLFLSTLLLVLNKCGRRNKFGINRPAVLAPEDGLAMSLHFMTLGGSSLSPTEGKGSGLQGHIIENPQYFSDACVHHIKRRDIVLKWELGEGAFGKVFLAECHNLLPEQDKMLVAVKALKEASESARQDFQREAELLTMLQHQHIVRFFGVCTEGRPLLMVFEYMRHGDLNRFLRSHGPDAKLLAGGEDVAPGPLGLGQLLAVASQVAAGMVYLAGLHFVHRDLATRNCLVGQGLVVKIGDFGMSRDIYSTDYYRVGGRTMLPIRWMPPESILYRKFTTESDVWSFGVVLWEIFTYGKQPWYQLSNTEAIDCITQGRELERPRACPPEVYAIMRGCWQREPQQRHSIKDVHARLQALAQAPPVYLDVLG
Sequence of TPM3-TRKA fusion protein (Q96SW2 whole entry, the tested form may be a part): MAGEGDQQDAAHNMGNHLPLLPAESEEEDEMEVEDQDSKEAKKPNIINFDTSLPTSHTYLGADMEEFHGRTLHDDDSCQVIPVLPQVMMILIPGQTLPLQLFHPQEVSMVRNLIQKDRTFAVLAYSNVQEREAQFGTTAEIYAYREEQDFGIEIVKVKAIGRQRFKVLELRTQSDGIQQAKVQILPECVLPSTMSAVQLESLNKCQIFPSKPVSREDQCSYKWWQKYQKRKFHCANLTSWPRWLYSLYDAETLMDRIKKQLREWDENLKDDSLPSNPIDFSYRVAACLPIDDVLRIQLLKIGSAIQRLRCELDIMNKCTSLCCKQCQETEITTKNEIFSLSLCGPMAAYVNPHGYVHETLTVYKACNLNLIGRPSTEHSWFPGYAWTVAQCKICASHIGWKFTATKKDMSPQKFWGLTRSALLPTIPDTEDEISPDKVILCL
Sequence of TPM3-TRKA fusion protein (Q16531 whole entry partner, the tested form may be a part): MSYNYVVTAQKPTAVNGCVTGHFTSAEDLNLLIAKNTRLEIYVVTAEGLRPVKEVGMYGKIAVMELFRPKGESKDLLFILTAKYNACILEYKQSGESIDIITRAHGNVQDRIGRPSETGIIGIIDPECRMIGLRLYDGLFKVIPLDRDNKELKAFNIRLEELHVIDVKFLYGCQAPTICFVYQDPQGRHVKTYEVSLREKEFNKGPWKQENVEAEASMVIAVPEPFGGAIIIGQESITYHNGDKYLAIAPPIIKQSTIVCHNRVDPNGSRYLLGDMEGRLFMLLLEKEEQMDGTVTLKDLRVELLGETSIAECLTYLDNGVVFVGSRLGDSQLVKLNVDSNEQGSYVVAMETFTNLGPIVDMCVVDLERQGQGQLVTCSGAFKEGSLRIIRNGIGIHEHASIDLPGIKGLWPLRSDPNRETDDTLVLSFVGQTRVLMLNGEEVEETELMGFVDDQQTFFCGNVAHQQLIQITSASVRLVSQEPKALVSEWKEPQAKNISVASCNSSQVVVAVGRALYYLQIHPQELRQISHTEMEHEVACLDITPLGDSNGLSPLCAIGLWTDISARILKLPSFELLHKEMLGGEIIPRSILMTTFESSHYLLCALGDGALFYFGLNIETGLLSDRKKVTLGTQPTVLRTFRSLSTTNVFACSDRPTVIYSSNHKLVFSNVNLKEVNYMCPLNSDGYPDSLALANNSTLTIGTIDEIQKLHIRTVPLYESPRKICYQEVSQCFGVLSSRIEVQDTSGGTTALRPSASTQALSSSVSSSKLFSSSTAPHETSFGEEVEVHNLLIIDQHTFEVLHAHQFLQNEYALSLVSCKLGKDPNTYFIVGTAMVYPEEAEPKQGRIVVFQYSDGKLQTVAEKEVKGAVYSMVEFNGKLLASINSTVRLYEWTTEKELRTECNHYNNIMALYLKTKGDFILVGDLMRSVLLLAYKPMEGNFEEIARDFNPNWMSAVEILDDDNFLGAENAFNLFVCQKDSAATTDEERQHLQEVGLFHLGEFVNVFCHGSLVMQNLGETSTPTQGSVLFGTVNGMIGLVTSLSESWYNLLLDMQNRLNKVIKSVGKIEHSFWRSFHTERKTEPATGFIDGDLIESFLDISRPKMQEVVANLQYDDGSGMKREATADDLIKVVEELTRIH
Procedure: In addition to cultured cells, athymic nude mice bearing KM12 subcutaneous xenograft tumors at the right flank were intraperitoneally treated with 10, 20, or 50 mg/kg CPD-053, CPD-027, or CPD-060. Four hours after drug administration, animals were sacrificed for immunoblotting of TPM3-TPKA in homogenized xenograft tumor masses. The label “a” or “b” represents two different samples of the same xenograft tumor.
Athymic nude mice bearing KM12 subcutaneous xenograft tumors at the right flank were intraperitoneally treated with 10, 20, or 50 mg/kg CPD-053, CPD-027, or CPD-060, as indicated in FIG. 3. Four hours after drug administration, animals were sacrificed for immunoblotting of TPM3-TPKA in homogenized xenograft tumor chunks. The label “a” or “b” represents two different chunks of the same xenograft tumor.
Athymic nude mice bearing KM12 subcutaneous xenograft tumors at the right flank were intraperitoneally or orally treated with bivalent compounds at indicated dose. Eight hours after drug administration, animals were sacrificed for immunoblotting of TPM3-TPKA in homogenized xenograft tumor samples.
Cultured cells were washed with cold PBS once and lysed in cold RIPA buffer supplemented with protease inhibitors and phosphatase inhibitors (Beyotime Biotechnology). The solutions were then incubated at 4° C. for 30 minutes with gentle agitation to fully lyse cells. For tumor tissues, tumors were cut into small pieces, milled with cold RIPA buffer using a mechanical homogenizer and lysed for 1 hour at 4° C. Cell lysates were centrifuged at 13,000 rpm for 10 minutes at 4° C. and pellets were discarded. Total protein concentrations in the lysates were determined by BCA assays (Beyotime Biotechnology). Cell lysates were mixed with Laemmli loading buffer to 1× and heated at 99° C. for 5 min. Proteins were resolved on SDS-PAGE and visualized by chemiluminescence. Images were taken by a ChemiDoc MP Imaging system (Bio-Rad). Protein bands were quantitated using the software provided by Bio-Rad.
as §3

[4] = system: KM12 subcutaneous xenograft tumors; test: KM12 subcutaneous xenograft tumor growth study; type: in vivo, Athymic nude mice; conditions: 10-20 mg/kg qd or bid via oral gavage (FIG. 15A)
Procedure: as §1, §2, §3

[5] = system: monoiodoacetate-induced osteoarthritis; test: Monoiodoacetate-induced osteoarthritis pain model in rats; type: in vivo, Sprague Dawley rats; conditions: 20 mg/kg i.p., single dose, 6 hours following treatment (FIG. 16A)
[6] = system: KM12 cells; test: Cell viability assay (CellTiter-Glo) in KM12 cells; type: cell-based; conditions: Homo sapiens, 72 h; Table 3; KM12 cell viability, CellTiter-Glo, 3 days; read-out: IC50

O=C1CCC(N2C(=O)c3ccc(NCCN4CCN(c5cccc(-c6cnc7ccc(N8CCC[C@@H]8c8cccc(F)c8)nn67)n5)CC4)cc3C2=O)C(=O)N1 (stereo partly drawn) [TR-181, 2-(2,6-dioxopiperidin-3-yl)-5-((2-(4-(6-(6-((R)-2-(3-fluorophenyl)pyrrolidin-1-yl)imidazo[1,2-b]pyridazin-3-yl)pyridin-2-yl)piperazin-1-yl)ethyl)amino)isoindoline-1,3-dione]
body weight [1]: without inducing substantial weight losses | analgesic activity (percentage of weight born on the injured limb) [2]: significant analgesic activity | TPM3-TRKA degradation in KM12 subcutaneous tumors [3]: exhibited the activities to induce TPM3-TRKA degradation | growth of KM12 subcutaneous xenograft tumors [4]: significant in vivo anti-tumor activity; also recorded: significantly repressed the growth | analgesic activity (percentage of weight born on the injured limb) [5]: significant analgesic activity | IC50 [6]: 3.4 nM
